26 molecules from the Deep4Chem optical property database can be followed below.

Where “and” joins values, the source holds several entries; their conditions need not be identical. Equal values may be shown once.

This data set in a line: solvent given as SMILES.

`CC1=C(c2ccccc2)Oc2cc3nc4ccccc4nc3c3cccc1c23` displayed an emission maximum (in ClCCl) of 554 nm.

Take `CCN(CC)c1ccc(/N=N/c2nc3ccc(Br)cc3s2)cc1`: the emission maximum (in CC#N) was 580 nm and the emission maximum (in ClCCl) is listed as 578 nm.

With `CN(C)c1cc(-c2ccccc2)cc2ccccc12`, the emission maximum (in ClCCl) was 422 nm.

Take `CC1(C)c2ccccc2N(c2ccc(C(=C(C#N)C#N)c3ccc(N4c5ccccc5C(C)(C)c5ccccc54)cc3)cc2)c2ccccc21`: the emission maximum (in Cc1ccccc1) was found to be 649 nm.

Regarding `C/C(=C\c1ccc(Cl)cc1)c1nc2ccccc2s1`, the emission maximum reads like this: (in C1CCCCC1) 390 nm; (in CO) 400 nm.

In turn, `O=C1NC(c2ccccc2)=N/C1=C\c1ccccc1` yielded an emission maximum (in C1COCCO1) of 444 nm.

Turning to `CC(C)(C)NC(=O)c1ccc(F)c2ccc3c4ccccc4c4ccccc4c3c12`, the emission maximum (in ClCCl) is reported as 405 nm.

As to `COC(=O)c1nc(-c2ccccc2)oc1C`, the emission maximum came out at 297 nm (in C1CCCCC1); 322 nm (in CC#N); 324 nm (in CCO); 318 nm (in CCOC(C)=O); 328 nm (in O).

Where the note is “in ClC(Cl)Cl”, `C(#Cc1ccc(C#Cc2ccc(C#Cc3ccccc3)cc2)cc1)c1ccccc1` registered an emission maximum of 387 nm.

Turning to `CC(C)(C)OC(=O)NC(C(=O)OCc1ccc2c3cccc4cccc(c5cccc1c52)c43)c1c[nH]c2ccccc12` (configuration not stated), the emission maximum (in CCO) was 447 nm.

Molecule `CCOC(=O)C1=C(C(=O)OCC)C2(c3ccccc3-c3ccccc32)[C@@H](c2ccccc2)C=C2c3cc(OC)c(OC)cc3CCN21` yielded an emission maximum (in ClCCl) of 430 nm.

Molecule `COc1ccc(-c2cccc3ncc(-c4ccccc4)n23)cc1` registered an emission maximum (in ClCCl) of 468 nm.

In the case of `CCN(CC)c1ccc2c(c1)oc(=O)c1c(=O)oc3c(C)c4oc(=O)c5c(=O)oc6cc(N(CC)CC)ccc6c5c4cc3c12`, the emission maximum came out at 558 nm (in CS(C)=O) and 542 nm (in ClCCl).

In turn, `O=c1[nH]cc(F)c(=O)[nH]1` showed an emission maximum (in CC#N) of 322 nm.

Turning to `CSc1nccc(/C=C/c2ccc(N(c3ccccc3)c3ccc(/C=C/c4ccnc(SC)n4)cc3)cc2)n1`, for the setting “in ClCCl”, the emission maximum turned out to be 540 nm.

Under “in ClC(Cl)Cl”, `N#Cc1c(C#N)c2cc(Cl)c(Cl)cc2c2cc(Cl)c(Cl)cc12` displayed an emission maximum of 412 nm.

For the setting “in ClC(Cl)Cl”, `CCCN1c2ccccc2Sc2cc(/C=C\c3cc(=O)oc4cc(O)ccc34)ccc21` returned an emission maximum of 631 nm.

Consider `CC(=O)c1cc2c(cc1F)NC(C)(C)CC2=O`, for which the emission maximum was found to be 417 nm (in CC#N) and 457 nm (in CCO).

For `COc1cc2c(cc1/C=C/C(=C(C#N)C#N)c1ccccc1)c1ccccc1n2C`, the emission maximum (in C1CCOC1) was 568 nm; the emission maximum (in CC#N) is 589 nm; the emission maximum (in CCO) is 575 nm; the emission maximum (in CCOC(C)=O) is 549 nm and 548 nm; the emission maximum (in CN(C)C=O) stood at 573 nm; the emission maximum (in CO) was 575 nm. Further, the emission maximum is, setting by setting: (in CS(C)=O) 581 nm; (in Cc1ccccc1) 566 nm; (in ClC(Cl)Cl) 554 nm; (in ClCCl) 560 nm.

`O=c1oc2cccc3c4cccc5ccc6c7cc(F)ccc7c1c(c23)c6c54`: the emission maximum (in C1CCOC1) was determined as 424 nm.

Regarding `COC(=O)CN1C(=O)c2cc3ccc(N(C)C)cc3cc2C1=O`, the emission maximum is, setting by setting: (in C1CCOC1) 510 nm; (in CC#N) 549 nm; (in CC(C)=O) 532 nm; (in CCO) 584 nm; (in Cc1ccccc1) 491 nm; (in ClC(Cl)Cl) 509 nm.

Turning to `Cc1ccc(-c2ccc(/C=C/c3ccc(F)cc3)cn2)nc1`, under “in CC#N”, the emission maximum turned out to be 391 nm.

`CN(C)c1ccc(C(=Cc2ccc(/C=C/c3ccc(C#N)cc3)cc2)c2ccc(N(C)C)cc2)cc1` displayed an emission maximum (in C1CCOC1) of 481 nm.

In turn, `Cc1cc(C)c(-c2cc3c(s2)-c2sc(-c4c(C)cc(C)cc4C)cc2P(c2ccccc2)(c2ccccc2)=[O+][B-]3(c2c(C)cc(C)cc2C)c2c(C)cc(C)cc2C)c(C)c1` displayed an emission maximum (in C1CCOC1) of 472 nm.

With `CCC1=C(C)C2=C(c3cc(C4=C5C(C)=C(CC)C(C)=[N+]5[B-](F)(F)n5c(C)c(CC)c(C)c54)cc(C4=C5C(C)=C(CC)C(C)=[N+]5[B-](F)(F)n5c(C)c(CC)c(C)c54)c3)c3c(C)c(CC)c(C)n3[B-](F)(F)[N+]2=C1C`, the emission maximum (in C1CCOC1) turned out to be 567 nm; the emission maximum (in CC#N) is given as 556 nm; the emission maximum (in CN(C)C=O) was 570 nm; the emission maximum (in Cc1ccccc1) was determined as 571 nm; the emission maximum (in ClC(Cl)Cl) worked out at 571 nm.

With `CCN(CC)c1ccc2cc(-c3nc4cc(C(=O)Nc5cccc(OC)c5)ccc4o3)c(=O)oc2c1`, the emission maximum (in ClCCl) is listed as 494 nm.
